Test results from patent publication US10000483B2, “Bone marrow on X chromosome kinase (BMX) inhibitors and uses thereof” (Dana-Farber Cancer Institute, Inc., priority 2012, dated 2018).
pEC50, pIC50: −log10 of the molar value. “And” between values parts separate entries of the source, which are not always exact repeats. Identical values can stand only once.

How the values were obtained:
MWCL-1 cells = assay: Cell proliferation analysis for WM and lymphoma cell lines (CellTiter-Glo); format: cell-based; details: 72 hours
Procedure: (§2) Various cell lines were used including Waldenström's macroglobulinemia (WM) cell lines (BCWM.1, MWCL-1, RPCI-WM1) and B-cell lymphoma cell lines (OCI-Ly3, Ramos, OCI-Ly19). Cells were seeded into 384 well plates with the EL406 Combination Washer Dispenser (BioTek Instruments, Inc.) and inhibitor compounds were injected into the cells culture media with the JANUS Automated Workstation (PerkinElmer Inc.).

BLK = BLK (Homo sapiens (Human), UniProt P51451); assay: Invitrogen Select Screening in vitro kinase assay; format: biochemical
Text: (§1) The in vitro activity of compounds of Formula (I) and (II) in inhibiting BMX and other kinases were obtained using an Invitrogen Select Screening assay as known in the art. The IC50 values determined from this assay are shown below.

mTOR = mTOR (Homo sapiens (Human), UniProt P42345); assay: Invitrogen Select Screening in vitro kinase assay; format: biochemical
Text: as §1

BTK = BTK (Homo sapiens (Human), UniProt Q06187); assay: Invitrogen Select Screening in vitro kinase assay; format: biochemical
OCI-Ly3 cells = assay: Cell proliferation analysis for WM and lymphoma cell lines (CellTiter-Glo); format: cell-based; details: Homo sapiens, 72 hours
Procedure: as §2

BMX = BMX (Homo sapiens (Human), UniProt P51813); assay: Invitrogen Select Screening in vitro kinase assay; format: biochemical
Ramos cells = assay: Cell proliferation analysis for WM and lymphoma cell lines (CellTiter-Glo); format: cell-based; details: Homo sapiens, 72 hours
Procedure: as §2

BCWM.1 cells = assay: as above; format: cell-based; details: BCWM1; 72 hours
Procedure: as §2

OCI-Ly19 cells = assay: as above; format: cell-based; details: Homo sapiens, 72 hours
Procedure: as §2

JAK3 = JAK3 (Homo sapiens (Human), UniProt P52333); assay: Invitrogen Select Screening in vitro kinase assay; format: biochemical
Chain of JAK3 (P52333 whole entry): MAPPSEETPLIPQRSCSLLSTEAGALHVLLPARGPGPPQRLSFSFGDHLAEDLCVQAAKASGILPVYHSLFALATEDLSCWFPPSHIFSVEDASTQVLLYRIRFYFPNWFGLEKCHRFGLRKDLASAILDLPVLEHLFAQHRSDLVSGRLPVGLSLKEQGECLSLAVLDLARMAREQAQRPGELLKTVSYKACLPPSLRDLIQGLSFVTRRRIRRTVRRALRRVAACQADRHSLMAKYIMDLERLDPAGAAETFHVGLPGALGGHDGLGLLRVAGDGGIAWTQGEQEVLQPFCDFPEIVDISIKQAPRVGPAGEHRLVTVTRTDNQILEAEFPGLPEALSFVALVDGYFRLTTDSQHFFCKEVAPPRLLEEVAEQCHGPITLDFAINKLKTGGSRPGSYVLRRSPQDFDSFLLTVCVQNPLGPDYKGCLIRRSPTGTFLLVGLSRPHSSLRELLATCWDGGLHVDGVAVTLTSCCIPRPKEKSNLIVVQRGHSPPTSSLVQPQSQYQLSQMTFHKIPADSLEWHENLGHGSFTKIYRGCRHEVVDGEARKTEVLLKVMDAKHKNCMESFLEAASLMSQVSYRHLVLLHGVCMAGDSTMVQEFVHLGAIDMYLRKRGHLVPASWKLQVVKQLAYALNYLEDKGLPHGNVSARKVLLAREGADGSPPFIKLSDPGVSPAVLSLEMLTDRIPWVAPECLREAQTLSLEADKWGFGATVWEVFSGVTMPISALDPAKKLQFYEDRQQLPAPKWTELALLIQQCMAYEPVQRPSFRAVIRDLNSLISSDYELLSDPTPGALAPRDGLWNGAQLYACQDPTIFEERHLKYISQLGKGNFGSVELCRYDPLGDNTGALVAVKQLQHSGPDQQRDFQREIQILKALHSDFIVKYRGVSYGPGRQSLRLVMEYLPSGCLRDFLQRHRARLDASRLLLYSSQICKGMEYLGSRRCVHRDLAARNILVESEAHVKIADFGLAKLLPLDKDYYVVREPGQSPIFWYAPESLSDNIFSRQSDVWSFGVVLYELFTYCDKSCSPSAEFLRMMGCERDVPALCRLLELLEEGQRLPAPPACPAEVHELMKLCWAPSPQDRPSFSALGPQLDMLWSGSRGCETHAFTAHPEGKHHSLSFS

Chain of BTK (Q06187 whole entry): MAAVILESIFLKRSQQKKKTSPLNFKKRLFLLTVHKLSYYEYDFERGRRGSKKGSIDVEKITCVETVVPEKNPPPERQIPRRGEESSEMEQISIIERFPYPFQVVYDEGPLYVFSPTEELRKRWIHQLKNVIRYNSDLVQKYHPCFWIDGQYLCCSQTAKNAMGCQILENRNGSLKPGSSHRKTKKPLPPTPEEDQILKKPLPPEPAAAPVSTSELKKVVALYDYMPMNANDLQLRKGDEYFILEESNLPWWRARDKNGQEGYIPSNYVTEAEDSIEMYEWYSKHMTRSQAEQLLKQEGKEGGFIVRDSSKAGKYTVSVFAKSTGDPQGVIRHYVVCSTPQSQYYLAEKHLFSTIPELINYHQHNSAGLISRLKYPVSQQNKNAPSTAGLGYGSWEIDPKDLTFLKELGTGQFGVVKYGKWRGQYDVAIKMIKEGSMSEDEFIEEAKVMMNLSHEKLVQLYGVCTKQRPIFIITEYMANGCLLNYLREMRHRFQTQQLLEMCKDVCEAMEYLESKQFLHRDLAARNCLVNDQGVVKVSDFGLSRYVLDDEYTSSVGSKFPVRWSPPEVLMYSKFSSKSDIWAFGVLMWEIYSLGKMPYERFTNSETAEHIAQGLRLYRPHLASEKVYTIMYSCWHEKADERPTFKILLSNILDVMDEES
Chain of BMX (P51813 whole entry): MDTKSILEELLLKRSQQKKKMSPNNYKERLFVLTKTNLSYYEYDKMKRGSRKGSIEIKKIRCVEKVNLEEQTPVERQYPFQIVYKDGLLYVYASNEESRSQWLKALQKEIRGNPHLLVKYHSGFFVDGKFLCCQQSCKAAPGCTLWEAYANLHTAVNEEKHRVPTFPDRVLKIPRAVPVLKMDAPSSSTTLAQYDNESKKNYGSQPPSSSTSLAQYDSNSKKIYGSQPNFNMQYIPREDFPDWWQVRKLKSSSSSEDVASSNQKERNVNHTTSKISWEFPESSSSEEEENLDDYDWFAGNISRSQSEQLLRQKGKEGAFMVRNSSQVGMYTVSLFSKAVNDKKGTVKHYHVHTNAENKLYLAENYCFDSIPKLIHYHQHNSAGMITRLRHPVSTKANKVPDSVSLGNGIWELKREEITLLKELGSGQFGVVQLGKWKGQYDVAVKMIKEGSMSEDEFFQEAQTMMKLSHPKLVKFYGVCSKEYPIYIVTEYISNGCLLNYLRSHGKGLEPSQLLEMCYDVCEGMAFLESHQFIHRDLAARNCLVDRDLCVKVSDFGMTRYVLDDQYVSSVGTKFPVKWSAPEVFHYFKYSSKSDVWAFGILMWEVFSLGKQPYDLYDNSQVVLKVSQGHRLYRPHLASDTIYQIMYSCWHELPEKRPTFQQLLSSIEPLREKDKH
Chain of BLK (P51451 whole entry): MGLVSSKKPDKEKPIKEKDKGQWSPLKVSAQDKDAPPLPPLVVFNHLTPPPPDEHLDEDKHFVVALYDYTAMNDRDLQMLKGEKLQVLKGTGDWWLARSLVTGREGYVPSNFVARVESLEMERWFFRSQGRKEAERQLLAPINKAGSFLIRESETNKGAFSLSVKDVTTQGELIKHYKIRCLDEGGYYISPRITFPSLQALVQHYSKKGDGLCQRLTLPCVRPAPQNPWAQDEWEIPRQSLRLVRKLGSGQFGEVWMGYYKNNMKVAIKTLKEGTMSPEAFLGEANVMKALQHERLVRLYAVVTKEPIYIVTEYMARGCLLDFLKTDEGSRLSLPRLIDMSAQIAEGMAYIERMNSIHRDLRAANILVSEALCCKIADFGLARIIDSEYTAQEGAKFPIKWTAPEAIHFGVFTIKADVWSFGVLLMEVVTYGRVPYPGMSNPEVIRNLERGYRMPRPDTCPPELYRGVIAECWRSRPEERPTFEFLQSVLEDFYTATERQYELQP

Compound | pEC50 (MWCL-1 cells) | pIC50 (BLK) | pIC50 (mTOR) | pIC50 (BTK) | pEC50 (OCI-Ly3 cells) | pIC50 (BMX) | pEC50 (Ramos cells) | pEC50 (BCWM.1 cells) | pEC50 (OCI-Ly19 cells) | pIC50 (JAK3)
C=CC(=O)Nc1cc(-n2c(=O)ccc3cnc4ccc(-c5ccccc5)cc4c32)ccc1C [I-7] | 6.02 | 6.60 | 6.68 | 7.60 | 6.42 | 7.80 | 6.51 | 6.74 | 8.00 | –
C=CC(=O)Nc1cc(-n2c(=O)ccc3cnc4ccc(-c5ccc(NC(=O)NC)cc5)cc4c32)ccc1C [I-8] | – | – | – | 7.18 | – | 7.39 | – | – | – | 5.38
C=CC(=O)N1CCc2ccc(-n3c(=O)ccc4cnc5ccc(-c6ccc(C(=O)NC)cc6F)cc5c43)cc21 [I-9] | – | – | – | 7.27 | – | – | – | – | – | –
C=CC(=O)N1CCc2ccc(-n3c(=O)ccc4cnc5ccc(-c6ccc(COc7cccc(C(F)(F)F)c7)cc6)cc5c43)cc21 [I-10] | 5.24 | – | – | 5.97 | 5.44 | < 5.00 | 5.42 | 5.67 | 6.54 | –
C=CC(=O)N1CCc2ccc(-n3c(=O)ccc4cnc5ccc(-c6ccc(S(=O)(=O)NC(C)(C)C)cc6)cc5c43)cc21 [I-11] | – | – | 6.27 | 7.96 | – | 7.74 | – | – | – | –
C=CC(=O)Nc1cc(-n2c(=O)ccc3cnc4ccc(-c5ccc(COc6cccc(C(F)(F)F)c6)cc5)cc4c32)ccc1C [I-13] | – | – | – | 7.43 | – | 7.74 and 7.55 | – | – | – | –
C=CC(=O)Nc1cc(-n2c(=O)ccc3cnc4ccc(-c5ccc(C(N)=O)cc5)cc4c32)ccc1C [I-15] | – | – | – | 7.10 | – | – | – | – | – | –
C=CC(=O)Nc1cc(-n2c(=O)ccc3cnc4ccc(/C=C/c5ccccc5)cc4c32)ccc1C [I-16] | 5.75 | – | – | 6.98 | 5.95 | 7.56 and 7.55 | 6.38 | 6.31 | 7.10 | –
C=CC(=O)N1CCc2ccc(-n3c(=O)ccc4cnc5ccc(-c6ccc(N7CCN(C)CC7)cc6)cc5c43)cc21 [I-17] | 5.75 | – | 6.29 | 6.81 | 5.95 | 6.40 | 6.38 | 6.31 | 7.10 | 5.25
C=CC(=O)Nc1cc(-n2c(=O)ccc3cnc4ccc(-c5ccc6c(c5)OCCO6)cc4c32)ccc1C [I-18] | – | – | 6.19 | 7.80 | – | 7.88 and 7.89 | – | – | – | –
C=CC(=O)Nc1cc(-n2c(=O)ccc3cnc4ccc(-c5ccc6occc6c5)cc4c32)ccc1C [I-20] | 6.10 | – | – | – | 5.96 | – | 6.22 | 5.99 | < 4.70 | –
C=CC(=O)Nc1cc(-n2c(=O)ccc3cnc4ccc(-c5ccc6ccncc6c5)cc4c32)ccc1C [I-21] | 7.25 | – | – | – | 6.96 | – | 7.24 | 7.03 | 7.05 | –
C=CC(=O)Nc1cc(-n2c(=O)ccc3cnc4ccc(-c5ccc6[nH]ncc6c5)cc4c32)ccc1C [I-22] | 6.93 | – | – | – | 6.74 | – | 7.04 | 6.69 | 7.29 | –
C=CC(=O)Nc1cc(-n2c(=O)ccc3cnc4ccc(-c5ccc6c(c5)OCO6)cc4c32)ccc1C [I-23] | 6.21 | – | – | – | 5.93 | – | 6.19 | 6.07 | 7.72 | –
C=CC(=O)Nc1cc(-n2c(=O)ccc3cnc4ccc(-c5ccc6ocnc6c5)cc4c32)ccc1C [I-24] | 6.55 | – | – | – | 6.29 | – | 6.45 | 6.46 | 7.62 | –
